Experimental data: patent US9464280B1, “Beta-lactamases with improved properties for therapy” (priority 2014, dated 2016)
Converted amounts (≈) assume the structure as drawn. Like-named read-outs stand apart in the source and are kept apart here.

Tests used:
[1] = tested on: Escherichia coli ATCC 25922; experiment: Microbroth dilution: EC50 of ampicillin and ceftriaxone in absence and presence of P1A; assay type: cell-based; conditions: Escherichia coli, ATCC25922, P1A 0, read-out: Ampiellin EC50
Experimental: (§1) Escherichia coli strain 25922 was cultured from glycerol stocks to logarithmic growth in cation adjusted Mueller-Hinton broth at 37° C. in an atmospheric environment and diluted in cation adjusted Mueller-Hinton broth to achieve a starting in well concentration of 5×10^5 CFU/mL. Serial 2-fold dilution of antimicrobial compounds were prepared in cation adjusted Mueller-Hinton broth to achieve final in well concentration of 128 μg/mL to 0.13 μg/mL for ampicillin and 4 μg/mL 4 ng/mL in the absence or presence of serial 10-fold dilutions of P1A, P3A, or P4A β-lactamase standard, 5 pg/mL to 50 ng/mL for ampicillin and […] to 500 ng/mL for ceftriaxone, ceftazidime, meropenem, cefepime, cefazolin, amp/sulbactam, cefoperazone, cefotaxime, and cefuroxime. Antibiotics were either added to the P1A and incubated for 30 min at 37° C. (pre-incubation) prior to addition of bacteria, or added to the plates following the addition of P1A, P3A, P4A, and bacteria (simultaneous). All concentrations and combinations were evaluated in triplicate in a 96-well plate format that contained media only, compound plus media only (colorimetric control), and untreated bacterial controls.
The 50% effective inhibitory concentration (EC50) of ampicillin and ceftriaxone against Escherichia coli was determined in the absence and presence of P1A β-lactamase. For the purposes of these studies, the stated effective concentration was the initial concentration of ampicillin or ceftriaxone added at the beginning of the experiment, and not a concentration measured during the course of the experiment or at the end of the incubation period.
Antibiotics were either added to the P1A and incubated for 30 min at 37° C. (Pre-incubation) prior to addition of bacteria, or added to the plates following the addition of P1A and bacteria (Simultaneous). All concentrations and combinations were evaluated in triplicate in a 96-well plate format. Following overnight incubation, the 0D625 of the plates was measured in a Spectramax 384 plate reader and the data were imported into a customized Excel spreadsheet for the determination of the 50% effective inhibitory concentration at (EC50) by linear regression analysis. For the purposes of these studies, the stated effective concentration is the initial concentration of ampicillin or ceftriaxone added at the beginning of the experiment, and not a concentration measured during the course of the experiment or at the end of the incubation period.
Antibiotics were either added to the P1A and incubated for 30 min at 37° C. (Pre-incubation) prior to addition of bacteria, or added to the plates following the addition of P1A and bacteria (Simultaneous). All concentrations and combinations were evaluated in triplicate in a 96-well plate format. Following overnight incubation, the OD625 of the plates was measured in a Spectramax 384 plate reader and the data were imported into a customized Excel spreadsheet for the determination of the 50% effective inhibitory concentration (EC50).
Antibiotics were added to the P1A bacteria (Simultaneous). All concentrations and combinations were evaluated in triplicate in a 96-well plate format. Following overnight incubation, the OD625 of the plates was measured in a Spectramax 384 plate reader and the data were imported into a customized Excel spreadsheet for the determination of the 50% effective inhibitory concentration at (EC50) by linear regression analysis.

[2] = tested on: Escherichia coli ATCC 25922; experiment: microbe, parasite or virus in culture; assay type: cell-based; conditions: for EC50 / EC90: Escherichia coli, ATCC25922, no enzyme
[3] = tested on: Escherichia coli ATCC 25922; experiment: microbe, parasite or virus in culture; assay type: cell-based; conditions: for EC90: Escherichia coli, ATCC25922, no enzyme
Experimental: as §1
Next, the 90% effective inhibitory concentration (EC90) of ampicillin, ceftriaxone, ceftazidime, meropenem, cefepime, cefazolin, amp/sulbactam, cefoperazone, cefotaxime, and cefuroxime against Escherichia coli was determined in the absence and presence of P1A, P3A, or P4A β-lactamase. For the purposes of these studies, the stated effective concentration was the initial concentration of ampicillin, ceftriaxone, ceftazidime, meropenem, cefepime, cefazolin, amp/sulbactam, cefoperazone, cefotaxime, and cefuroxime added at the beginning of the experiment, and not a concentration measured during the course of the experiment or at the end of the incubation period.
Specifically, the assay was performed by diluting (2-fold steps) the chosen antibiotic across the rows of a 96 well dish. The MIC was determined as the point at which the diluted antibiotic transitions from killing to not killing the bacteria (in this case, an E. coli strain that is sensitive to all antibiotics). P1A, P3A, and P4A were diluted (10 fold steps) down the columns (the β-lactamase concentrations increased down the columns). […] The latter point was used as the cut-off point. […] However, for this assay, the absolute MIC is not the most important parameter. The most relevant readout was the β-lactamase concentration at which the apparent MIC increases to the maximum amount of antibiotic tested.
(§2) E coli 29522 was incubated overnight in the presence of serial dilutions of antibiotic and the indicated amounts of β-lactamase protein from cell culture supernatants in a 96 well plate. Bacterial density (OD625) of the cultures was measured and the concentration at which the density was reduced by 90% relative to an untreated bacterial control (EC90) was determined. The assay was performed on two separate days and the data reported as Rep1 and Rep2. NA=not assayed.
as §2, with “determined.” for “determined. The assay was performed on two separate days and the data reported as Rep1 and Rep2. NA=not assayed.”

[4] = Preliminary enzymatic activity of P1A mutants from B. subtilis supernatants; assay type: biochemical; conditions: B. subtilis supernatant, one substrate concentration
Experimental: β-lactamase activity of the mutants was further characterised from E. coli cell lysates and B. subtilis growth supernatant with ampicillin, cefotaxime, ceftriaxone, cefuroxime, ceftazidime, meropenem and imipenem. The activities were determined using only one substrate concentration of each antibiotic tested. Selection of the antibiotic concentration was done with the antibiotic concentration as high as was practical, [S]>>Km. Based on these preliminary experiments, more accurate kinetic parameters were determined for a couple of mutants from both the site-directed and the random mutagenesis research lines. All the mutant enzymes selected for more detailed study were expressed in the B. subtilis host strain RS303. The cells carrying the mutated proteins were grown in minimal medium over-night after which the cells were harvested and the supernatant was concentrated in 1:10 with Amicon Ultra-4 centrifugal devices, MWCO 10000 (Amicon). Protein concentration in each culture supernatant was estimated from 12% SDS-PAGE (Criterion XT Bis-Tris, BioRad, Calif., USA) using the P1A reference material A18K31 as a standard. Kinetic parameters were measured for cefotaxime, ceftriaxone and cefuroxime for each selected mutant strain. The site-directed mutants were designed to hydrolyze cefotaxime and random mutants were screened with ceftriaxone, which made these antibiotics natural choices for determining kinetic parameters.

[5] = tested on: E. coli (ATCC 25922); experiment: Microtiter plate antibiotic degradation activity assay; assay type: cell-based
Experimental: P1A and P4A were screened for degradation of ampicillin, ceftriazone, cefotaxime, cefozolin, cefuroxime, cefoperazone, cefepime, and ceftazidime in a microtiter plate activity assay that was designed to mimic the activity of the beta-lactamases in the gut in the presence of high antibiotic concentrations. The assay was performed by mixing 10, 100 or 1000 μg/ml of the indicated antibiotics with P1A or P4A, at concentrations of 10 or 100 ng/ml. Plates were either incubated for one hour at 37° C. after which E. coli (ATCC 25922) was added, or E. coli was added immediately after the addition of the beta-lactamase enzymes. The plates were incubated overnight and the bacterial growth quantified by measuring the absorbance at 625 nm (OD625) in a Spectramax 384 Plus plate reader. The analysis was performed twice for each beta-lactamase and antibiotic. The beta-lactamase activity of the culture supernatants was determined as positive or negative based on the appearance of bacterial growth in the individual wells. An OD625 of 1.0 or greater indicated maximal bacterial growth, therefore complete antibiotic degradation and high beta-lactamase activity.

[6] = no enzyme, 2nd value, high test 2 μg/mL

## CC1(C)S[C@@H]2[C@H](NC(=O)[C@H](N)c3ccccc3)C(=O)N2[C@H]1C(=O)O [Ampicillin]
[1]; pre-incubation, Table 12
  EC50: 16 µg/mL
[1]; pre-incubation, Table 13
  EC50: 16 µg/mL
[1]; simultaneous, Table 12
  EC50: 16 µg/mL
[1]; simultaneous, Table 13
  EC50: 16 µg/mL
[1]; simultaneous, Table 14 repeat analysis
  EC50: 16 µg/mL
[2]; Rep 1, Table 15, read-out: Ampiellin EC50
  EC50: 2 µg/mL (≈ 5.72 µM)
[2]; Rep 2, Table 15, read-out: Ampiellin EC50
  EC50: 4 µg/mL (≈ 11.4 µM)

## CO/N=C(\C(=O)N[C@@H]1C(=O)N2C(C(=O)O)=C(COC(N)=O)CS[C@H]12)c1ccco1 [Cefuroxime]
[2]; 2nd value, high test 128 μg/mL, read-out: Cefuroxime EC90
  EC90: 4 µg/mL (≈ 9.43 µM)
[2]; no enzyme, 2nd value, high test 128 μg/mL
  Cefuroxime EC90: 2.0 µg/mL
[3]; 1st value, high test 128 μg/mL, read-out: Cefuroxime EC90
  EC90: 4 µg/mL
[3]; no enzyme, 1st value, high test 128 μg/mL
  Cefuroxime EC90: 2.0 µg/mL

## CCN1CCN(C(=O)N[C@@H](C(=O)N[C@@H]2C(=O)N3C(C(=O)O)=C(CSc4nnnn4C)CS[C@H]23)c2ccc(O)cc2)C(=O)C1=O [Cefoperazone]
[2]; 1st value, high test 8 μg/mL, read-out: Cefoperazone EC90
  EC90: 0.25 µg/mL (≈ 0.387 µM)
[2]; 2nd value, high test 8 μg/mL, read-out: Cefoperazone EC90
  EC90: 0.13 µg/mL (≈ 0.201 µM)
[2]; no enzyme, 2nd value, high test 8 μg/mL
  Cefoperazone EC90: 0.25/0.25 μg/mL
[3]; no enzyme, 1st value, high test 8 μg/mL
  Cefoperazone EC90: 0.25/0.25 μg/mL

## C[C@@H](O)[C@H]1C(=O)N2C(C(=O)O)=C(S[C@@H]3CN[C@H](C(=O)N(C)C)C3)[C@H](C)[C@H]12 [Meropenem]
[2]; 1st value, high test 1 μg/mL, read-out: Meropenem EC50
  EC50: 0.06 µg/mL (≈ 0.156 µM)
[2]; 2nd value, high test 1 μg/mL, read-out: Meropenem EC50
  EC50: 0.06 µg/mL (≈ 0.156 µM)
[2]; no enzyme, 2nd value, high test 1 μg/mL
  Meropenem EC50: 0.03 µg/mL

## CO/N=C(\C(=O)N[C@@H]1C(=O)N2C(C(=O)O)=C(COC(C)=O)CS[C@H]12)c1csc(N)n1 [Cefotaxime]
[2]; 1st value, high test 2 μg/mL, read-out: Cefotaxime EC90
  EC90: 0.004 µg/mL (≈ 0.00878 µM)
[2]; no enzyme, 1st value, high test 2 μg/mL
  Cefotaxime EC90: 0.004/0.004 μg/mL
[2]; [6]
  Cefotaxime EC90: 0.004/0.004 μg/mL
[3]; 2nd value, high test 2 μg/mL, read-out: Cefotaxime EC90
  EC90: 0.008 µg/mL

## Cc1nnc(SCC2=C(C(=O)O)N3C(=O)[C@@H](NC(=O)Cn4cnnn4)[C@H]3SC2)s1 [Cefazolin]
[2]; 1st value, high test 64 μg/mL, read-out: Cefazolin EC90
  EC90: 2 µg/mL (≈ 4.4 µM)
[2]; 2nd value, high test 64 μg/mL, read-out: Cefazolin EC90
  EC90: 2 µg/mL (≈ 4.4 µM)

## CO/N=C(\C(=O)N[C@@H]1C(=O)N2C(C(=O)[O-])=C(C[N+]3(C)CCCC3)CS[C@H]12)c1csc(N)n1 [Cefepime]
[2]; 1st value, high test 2 μg/mL, read-out: Cefepime EC50
  EC50: 0.06 µg/mL (≈ 0.125 µM)
[2]; 2nd value, high test 2 μg/mL, read-out: Cefepime EC50
  EC50: 0.03 µg/mL (≈ 0.0624 µM)
[2]; [6]
  Cefepime EC50: 0.03/0.03 μg/mL

## IS203: P1A with T160F
[4]
  AMP = ampicillin enzymatic activity: 0.01 multiples of P1A
  CAZ = ceftazidime enzymatic activity: 0.13 multiples of P1A
  CRO = ceftriaxone enzymatic activity: 0.00 multiples of P1A
  CTX = cefotaxime enzymatic activity: 0.01 multiples of P1A
  CXM = cefuroxime enzymatic activity: 0.00 multiples of P1A

## CC(C)(O/N=C(\C(=O)N[C@@H]1C(=O)N2C(C(=O)[O-])=C(C[n+]3ccccc3)CS[C@H]12)c1csc(N)n1)C(=O)O [Ceftazidime]
[2]; 1st value, high test 4 μg/mL, read-out: Ceftazidime EC50
  EC50: 0.13 µg/mL (≈ 0.238 µM)
[2]; no enzyme, 1st value, high test 4 μg/mL
  Ceftazidime EC50: 0.13/0.13 μg/mL
[2]; no enzyme, 2nd value, high test 4 μg/mL
  Ceftazidime EC50: 0.5 µg/mL

B1: IS288: P1A with A232G A237S A238G S240D D276N; SEQ ID NO: 5 (protein)
chain: EMKDDFAKLEEQFDAKLGIFALDTGTNRTVAYRPDERFAFASTIKALTVGVLLQQKSIEDLNQRITTRDDLVNYNPITEKHVDTGMTLKELADASLRYSDNAAQNLILKQIGGPESLKKELRKIGDEVTNPERFEPELNEVNPGETQDTSTARALVTSLRAFALEDKLPSEKRELLIDWMKRNTTGDALIRAGVPDGWEVGDKTGSGDYGTRNDIAIIWPPKGDPVVLAVLSSRDKKDAKYDNKLIAEATKVVMKALNMNGK
[5]; enzyme 10 or 100 ng/ml, FIG. 8
  activity relative to P1A, all antibiotics except ampicillin: imporved activity relative to P1A
[5]; modification of five amino acids in P1A
  cephalosporinase activity boosted relative to P1A: 10-1000 fold
[2]; data showed activity at 500 ng/ml
  improvement of activity for ceftazidime: 10 fold
[2]; for ceftriaxone, cefotaxime, ceftazidime, cefazolin, cefoperazone and cefuroxime
  β-lactamase activity in comparison to P1A: ≥ 10 fold
[3]; amp/sulbactam data
  inhibition by sulbactam: effectively inhibited
